Results reported in US8541543B2, “Peptides specific for hepatocellular carcinoma cells and applications thereof” (Academia Sinica, priority 2007, dated 2013).

Experiments:
advanced HCC = conditions: HCC (ref 36); cited from earlier work
[1] = system: Mahlavu-derived HCC xenografts; experiment: In vivo peptide competitive inhibition of PC94 tumor binding; parameters: species or system SCID mice; conditions: 100 μg peptide co-injected with PC94, FIG. 3B
Method: (§1) SCID mice (4-6 weeks old) were injected subcutaneously (s.c.) into the dorsal-lateral flank with 5×10^6 Mahlavu cells. Mice bearing Mahlavu-derived xenografts (500 mm^3) were injected intravenously (i.v.) with 2×10^9 pfu of PC94 or control phage. After perfusion, the organs (brain, heart, and lungs) and tumor tissue were removed, washed with cold PBS and weighed. The phage bound to the tumor tissue and organs were rescued by Escherichia coli ER2738 culture. The eluted phage particles were titrated on LB/IPTG/X-Gal plates. In peptide competitive inhibition experiments, 2×10^9 pfu of PC94 phage was co-injected with 100 μg of SP94 peptide or the control peptide. The tissue distribution of targeting phages in the tumor-bearing mice was examined by immunohistochemical staining. The tissue sections were incubated with mouse anti-M13 antibody, followed by incubation with biotinylated horse anti-mouse antibody (ABC kit; Vector Laboratories, Burlingame, Calif., USA) and washed with PBS, then immersed with ABC reagent. The sections were immersed in DAB solution plus 0.01% hydrogen peroxide, washed with PBS and mounted with 50% glycerol in PBS.

[2] = system: Mahlavu-derived HCC xenografts; experiment: Immunohistochemical tissue distribution of targeting phages in tumor-bearing mice; assay type: in vivo, SCID mice; conditions: FIG. 3C, j
Method: as §1

Q: Which overall response rate (advanced HCC) does the source give for `COc1cccc2c1C(=O)c1c(O)c3c(c(O)c1C2=O)C[C@@](O)(C(=O)CO)C[C@@H]3O[C@H]1C[C@H](N)[C@H](O)[C@H](C)O1` [doxorubicin] here?
A: The overall response rate was 18%.

Q: For FPWFPLPSPYGN [control peptide], which “inhibition of PC94 binding to tumor tissue” value [1] is on record?
A: Its value is “no such inhibitory effect”.

Q: Which “immuno-reactivity of tumor tissue when PC94 co-injected with peptide” value [2] does the source give for SFSIIHTPILPL [SP94] here?
A: Its value is “no immuno-reactivity was found in the tumor tissue”.
